Experiments:
[1] = Pharmacokinetic study in rat plasma after oral administration of RCR and WCR oral liquid medicine; assay type: in vivo, Sprague-Dawley rats; details: n = 6, mean ± SD; for AUC(0-inf) / AUC(0-t) / Cmax / MRT / Tmax / half-life: male, Sprague-Dawley, rat, plasma, po, 24.01 g/kg
Description: RCR (300 g) and WCR (300 g) were weighed and soaked in water (6:1, v/w) for 20 min respectively, then refluxed for 30 min and extracted twice. Finally, the extracts of RCR and WCR were filtered, combined, and concentrated to 1.20 g/mL respectively. The concentrated extracts were stored in a refrigerator at 4 °C before use.
Male adult Sprague-Dawley rats (220–250 g) were obtained from the Laboratory Animal Center of Shanxi Medical University (Shanxi, China). The rats were fed in an air-conditioned animal center with a natural light-dark cycle for a week, the temperature was maintained at 22–26 °C and the relative humidity was maintained at 60 ± 10%. All procedures involving the animal were in accordance with the Regulations of Experimental Animal Administration issued by the State Committee of Science and Technology of People’s Republic of China. It is worth noting that all rats were fasted with free access to water for 12 h prior to the experiment.
The collected plasma samples (100 µL) spiked with IS (10 µL) and methanol (10 µL) were vortex-mixed for 5 min. Subsequently, methanol of 300 µL was added for protein precipitation. The mixtures were vortexed for 5 min and then centrifuged at 13,000 rpm for 20 min. Finally, the supernatant was transferred to another clean centrifuge tube and centrifuged again in the same manner. The supernatant of 5 µL was injected into the UHPLC-Q-Exactive-Orbitrap/MS system for analysis.
Twelve rats were randomly divided into two groups (n = 6 per group), an orally administered liquid medicine of RCR and WCR respectively at the same dose of 24.01 g/kg. The blood samples (0.3 mL) from the suborbital vein of each rat were collected in a 1.5 mL heparinized centrifuge tube before dosing and at 0.033, 0.083, 0.16, 0.25, 0.5, 1, 2, 4, 8, 11, 24, 48 h after administration. The blood samples were immediately centrifuged at 13,000 rpm for 10 min and the plasma separated out were transferred to clean centrifuge tubes and stored at −20 °C until analysis.
The pharmacokinetic parameters of the analytes were evaluated using Phoenix WinNonlin software (version 6.0, Pharsight Corporation, CA, USA). The mean plasma concentration-time curves were presented using Graphpad Prism (version 6.0, Graghpad Software, San Diego, CA, USA).

[2] = assay type: in vitro ADME, rat; details: low QC (7.08/5.22/6.55/6.68 ng/mL), n = 6
Description: The quality control (QC) samples were prepared by the same procedure described above. Furthermore, low, medium, high concentrations of QC samples of each component were 7.08, 141.50, 1132 ng/mL for butylidenephthalide; 5.22, 104.40, 835.20 ng/mL for ligustilide; 6.55, 131, 1048 ng/mL for senkyunolide A and 6.68, 667.50, 10,680 ng/mL for ferulic acid, respectively.
The stability study of biological samples containing short-term, long-term, freeze-thaw and post-preparation stability could evaluate the influence of sample handling environment and sample storage environment on active component content. Six replicates of QC samples at three concentration levels were analyzed for all stability studies. Short-term stability was evaluated by keeping all QC samples at room temperature for 4 h before processing. Long-term stability was evaluated after all QC samples were stored at −20 °C for 60 days. Freeze-thaw stability of QC samples of each concentration was evaluated after three freeze (−20 °C)-thaw (room temperature) cycles. Post-preparation stability was to observe the stability of the extracted QC samples after waiting for 24 h in the autosampler at 4 °C. The concentration of each QC sample was calculated by the standard curve prepared freshly on the same day. The samples were considered stable when RSD of QC samples at three concentration levels was within ±15%.

| AUC(0-inf) ([1]; oral RCR 24.01 g/kg) [ng·h/mL] | AUC(0-t) ([1]; oral RCR 24.01 g/kg) [ng·h/mL] | Cmax ([1]; oral RCR 24.01 g/kg) [ng/mL] | MRT ([1]; oral RCR 24.01 g/kg) [h] | Tmax ([1]; oral RCR 24.01 g/kg) [h] | half-life ([1]; oral RCR 24.01 g/kg) [h] | AUC(0-inf) ([1]; oral WCR 24.01 g/kg) [ng·h/mL] | AUC(0-t) ([1]; oral WCR 24.01 g/kg) [ng·h/mL] | Cmax ([1]; oral WCR 24.01 g/kg) [ng/mL] | MRT ([1]; oral WCR 24.01 g/kg) [h] | Tmax ([1]; oral WCR 24.01 g/kg) [h] | half-life ([1]; oral WCR 24.01 g/kg) [h] | Cl ([1]; oral RCR 24.01 g/kg) [mL/h] | Vd ([1]; oral RCR 24.01 g/kg) [mL] | Cl ([1]; oral WCR 24.01 g/kg) [mL/h] | Vd ([1]; oral WCR 24.01 g/kg) | SMILES | further results |
| --- | --- | --- | --- | --- | --- | --- | --- | --- | --- | --- | --- | --- | --- | --- | --- | --- | --- |
| 13400 | 13100 | 47700 | 3.21 ± 1.66 | 0.12 ± 0.09 |  | 4620 ± 1290 | 4460 ± 1240 | 9530 ± 6500 | 4.05 ± 1.07 | 0.06 ± 0.03 |  | 24.08 ± 14.39 | 283.95 ± 234.10 | 178.84 ± 54.46 | 1519.30 ± 1321.97 mL | COc1cc(/C=C/C(=O)O)ccc1O [Ferulic Acid, ferulic acid] | t1/2 ([1]; oral RCR 24.01 g/kg): 8.57 ± 4.42 h; t1/2 ([1]; oral WCR 24.01 g/kg): 5.33 ± 2.97 h |
| 4110 ± 285 | 4080 ± 201 | 289 ± 8.1 | 13.5 ± 1.74 | 0.22 ± 0.05 | 8.5 ± 1.41 | 4040 ± 1480 | 3310 ± 579 | 192 ± 8.48 | 21.9 ± 11.2 | 0.3 ± 0.18 | 14.6 ± 7.56 | 128.76 ± 19.21 | 1579.29 ± 363.96 | 568.93 ± 184.86 | 10,580.62 ± 2206.75 mL | CCC/C=C1\OC(=O)C2=C1CCC=C2 [Ligustilide, ligustilide] |  |
| 1840 ± 501 | 1640 ± 438 | 653 ± 581 | 18.8 ± 4.24 | 0.11 ± 0.09 | 13.4 ± 3.56 | 861 ± 267 | 804 ± 279 | 151 ± 84.3 | 9.86 ± 1.53 | 0.18 ± 0.07 | 6.32 ± 1.72 | 392.87 ± 142.41 | 7378.16 ± 2565.01 |  | 8275.68 ± 5216.70 mL | CCCCC1OC(=O)C2=C1CCC=C2 (stereo not shown) [Senkyunolide A, senkyunolide A] |  |

| SMILES | AUC(0-inf) ([1]; oral RCR 24.01 g/kg) [ng·h/mL] | AUC(0-t) ([1]; oral RCR 24.01 g/kg) [ng·h/mL] | Cmax ([1]; oral RCR 24.01 g/kg) [ng/mL] | MRT ([1]; oral RCR 24.01 g/kg) [h] | Tmax ([1]; oral RCR 24.01 g/kg) [h] | half-life ([1]; oral RCR 24.01 g/kg) [h] | AUC(0-inf) ([1]; oral WCR 24.01 g/kg) [ng·h/mL] | AUC(0-t) ([1]; oral WCR 24.01 g/kg) [ng·h/mL] | Cmax ([1]; oral WCR 24.01 g/kg) [ng/mL] | MRT ([1]; oral WCR 24.01 g/kg) [h] | Tmax ([1]; oral WCR 24.01 g/kg) [h] | half-life ([1]; oral WCR 24.01 g/kg) [h] | Cl ([1]; oral RCR 24.01 g/kg) [mL/h] | Vd ([1]; oral RCR 24.01 g/kg) [mL] | Cl ([1]; oral WCR 24.01 g/kg) [mL/h] | Vd ([1]; oral WCR 24.01 g/kg) | further results |
| --- | --- | --- | --- | --- | --- | --- | --- | --- | --- | --- | --- | --- | --- | --- | --- | --- | --- |
| CCC/C=C1\OC(=O)c2ccccc21 [Butylidenephthalide, butylidenephthalide] | 782 ± 252 | 743 ± 279 | 288 ± 370 | 14.1 ± 6.54 | 0.25 ± 0.14 | 11.4 ± 5.88 | 402 ± 77.1 | 384 ± 90.9 | 52.1 ± 16.6 | 13.9 ± 3.63 | 0.27 ± 0.14 | 11 ± 3.75 | 36.61 ± 16.33 | 633.78 ± 424.90 | 234.35 ± 44.10 | 3802.37 ± 1676.69 mL | Post-Preparative Stability RE ([2]; extracted rat plasma, 24 h in autosampler at 4 °C): 6.90%; Bench-Top Stability RE ([2]; rat plasma, room temperature 4 h): 1.88%; Freeze-Thaw Stability RE ([2]; rat plasma, three freeze (−20 °C)-thaw cycles): −10.99%; Long-Term Stability RE ([2]; rat plasma, −20 °C for 60 days): 4.03% |

Reference: PMC6982718, “Comparative Study on Pharmacokinetics of Four Active Compounds in Rat Plasma after Oral Administration of Raw and Wine Processed Chuanxiong Rhizoma” (Molecules, 2019)
